Data on two compounds can be found in patent US20210300960A1, “SUGAR DERIVATIVE OR SALT THEREOF, AND ANTIBACTERIAL AGENT OR ANTIBACTERIAL ACTIVITY ENHANCER USING SAME” (NAGOYA INSTITUTE OF TECHNOLOGY, priority 2016, published 2021).

For one assay, the system named is Escherichia coli. As to the kind of experiment: Antimicrobial activity enhancing action: MIC of novobiocin or erythromycin alone or in combined use with cyclodextrin derivative, Escherichia coli. In kind it is cell-based. On the procedure: The evaluation was performed by a procedure as follows. Specifically, before testing, each of the bacteria were incubated on a minimal salt medium combined with common bacteria-use dried broth or polypeptone and reached a logarithmic growth phase. […] Some of existing antimicrobial substances fail to exert their inherent antimicrobial activities, due to the bacterial membrane serving as a physical barrier. In these cases, the substances offer high minimum inhibitory concentrations (MICs) necessary for inhibiting the bacterial growth and are considered as having no antimicrobial (antibacterial) activity. In particular, this allows Gram-negative bacteria, which have not only a cytoplasmic membrane, but also a bacterial outer membrane, to have remarkable drug resistance. […] Next, the compound (cyclodextrin derivative) (a) represented by Chemical Formula (11) was evaluated for antimicrobial activity enhancing action through a test performed by a procedure similar to that in Example 3.

Another assay relates to Pseudomonas aeruginosa. As to the kind of experiment: Antimicrobial activity enhancing action: MIC of novobiocin or erythromycin alone or in combined use with cyclodextrin derivative, Pseudomonas aeruginosa. In kind it is cell-based. To be noted: cyclodextrin derivative 0 μg/mL (single use).

Like-named read-outs stand apart in the source and are kept apart here.

Description for Pseudomonas aeruginosa: The evaluation was performed by a procedure as follows. Specifically, before testing, each of the bacteria were incubated on a minimal salt medium combined with common bacteria-use dried broth or polypeptone and reached a logarithmic growth phase. […] The testing incubation was performed at an initial bacterial concentration of 1×10^4 cells per milliliter.
The test was performed using bacteria Escherichia coli and Pseudomonas aeruginosa.

Turning to `CC[C@H]1OC(=O)[C@H](C)[C@@H](O[C@H]2C[C@@](C)(OC)[C@@H](O)[C@H](C)O2)[C@H](C)[C@@H](O[C@@H]2O[C@H](C)C[C@H](N(C)C)[C@H]2O)[C@](C)(O)C[C@@H](C)C(=O)[C@H](C)[C@@H](O)[C@]1(C)O` [erythromycin], the MIC with Escherichia coli (read-out: Minimum inhibitory concentration (MIC) of erythromycin, cyclodextrin derivative 0 μg/mL (single use)) turned out to be 64 µg/mL.
Regarding `CO[C@@H]1[C@@H](OC(N)=O)[C@@H](O)[C@H](Oc2ccc3c(O)c(NC(=O)c4ccc(O)c(CC=C(C)C)c4)c(=O)oc3c2C)OC1(C)C` [novobiocin], the MIC in the assay on Escherichia coli (cyclodextrin derivative 0 μg/mL (single use), read-out: Minimum inhibitory concentration (MIC) of novobiocin) turned out to be 128 µg/mL; with Pseudomonas aeruginosa (read-out: Minimum inhibitory concentration (MIC) of novobiocin), 2050 µg/mL. In addition, the “Minimum inhibitory concentration (MIC) of novobiocin” value in the assay with Pseudomonas aeruginosa worked out at 2048 µg/mL.
